Experimental data taken from patent publication US20250388607A1, “A BROMOTAG-BASED TOOLKIT FOR RAPID INDUCTION OF CHEMICALLY INDUCED PROXIMITY” (THE BOARD OF TRUSTEES OF THE LELAND STANFORD JUNIOR …, priority 2024, published 2025).
“Also recorded” adds a separate entry of the source.

Assays:
[1] = target: T1, BromoTag (Homo sapiens, UniProt O60885, L387A); assay: NanoBiT assay, BromoTag homodimerization, tag expressed alone; assay type: cell-based; settings: all orientations of LgBiT and SmBiT tags; FIGS. 4A-4D and 5; high background
T1 construct: BRD4 BD2 L387A mutant tag; expressed in transfected cells; host or cells: HEK293T
Text: (§1) FKBP/BromoTag NanoBiT-tagged construct cloning. FKBP12F36V and BromoTag sequences were cloned using Gibson assembly into pBiT1.1-C [TK/LgBiT], pBiT2.1-C [TK/SmBiT], pBiT1.1-N [TK/LgBiT], and pBiT2.1-N [TK/SmBiT] vectors included in the NanoBiT® PPI MCS Starter System kit (Promega #N2014). […] pBiT1.1 and pBiT2.1 vectors were linearized at EcoRI and NheI cut sites, inserts were amplified with PCR, and constructs were ligated using NEBuilder® HiFi DNA Assembly Master Mix.
(§2) NanoBiT assay. 15k HEK293T cells per well were plated in 92 ul DMEM+10% FBS in opaque 96-well plates and allowed to adhere overnight, approximately 18-24 hours. HEK293T cells were subsequently transfected with pBiT1.1 (LgBiT-tagged) or pBiT2.1 (SmBiT-tagged) FKBP12F36V and/or BromoTag vectors, using TransIT-LT1 transfection reagent (Mirus #MIR2300) and Opti-MEM (Gibco #31985062). After 24 hours, 25 ul Nano-Glo® Live Cell Reagent was added to each well to measure dimerization signal. Using a PHERAstar FSX, baseline luminescence was measured for five or six cycles (approximately eight to ten minutes). Test dimerizer compounds freshly diluted in DMEM+10% FBS were then manually spiked in and induced luminescence was measured continuously for up to two hours. All summary figures were generated with GraphPad Prism. Data for the NanoBit assay is provided in FIGS. 1A-1D, 2A-2B, 3A-3B, 4A-4D, 5, 6A-6B, 7, and 12A-12C.

[2] = target: T2, FKBP12F36V and BromoTag (Homo sapiens, UniProt O60885+P62942, F37V/L387A); assay: NanoBiT assay, FKBP/BromoTag heterodimerization, tags expressed alone; assay type: cell-based; settings: all LgBiT and SmBiT tag orientations; FIGS. 1A-1D; HEK293T
T2 construct: BRD4 BD2 L387A mutant tag; LgBiT or SmBiT (NanoBiT subunit); expressed in transfected cells; host or cells: HEK293T
T2 sequence (P62942 whole entry F37V, other chains not shown): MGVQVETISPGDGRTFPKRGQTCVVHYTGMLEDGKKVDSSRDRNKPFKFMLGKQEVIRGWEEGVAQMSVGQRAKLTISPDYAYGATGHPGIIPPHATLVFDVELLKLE
Text: as §1
as §2, with “All summary figures were generated with GraphPad Prism. Data for the NanoBit assay is provided in FIGS. 1A-1D, 2A-2B, 3A-3B, 4A-4D, 5, 6A-6B, 7, and 12A-12C.” left out

| Structure (SMILES) | max dimerization signal compared with DMSO [1] | max dimerization signal compared with FKBP12WT/FRB-rapamycin control [1] | max dimerization signal compared with FKBP12WT/FRB-rapamycin (sirolimus) control [2] |
| --- | --- | --- | --- |
| CC[C@@H](C(=O)NCCCCCCNC(=O)[C@H](CC)[C@@H]1N=C(c2ccc(Cl)cc2)c2c(sc(C)c2C)-n2c(C)nnc21)[C@@H]1N=C(c2ccc(Cl)cc2)c2c(sc(C)c2C)-n2c(C)nnc21 [MMH-05-01-02, (2R,2′R)-N,N′-(hexane-1,6-diyl)bis(2-((S)-4-(4-chlorophenyl)-2,3,9-trimethyl-6H-thieno[3,2-f][1,2,4]triazolo[4,3-a][1,4]diazepin-6-yl)butanamide)] | improved max dimerization signal over DMSO; also recorded: in most NanoBiT tag orientations have improved signal over DMSO | significantly higher signal; also recorded: outperformed existing FKBP12WT/FRB-rapamycin heterodimerization system | – |
| CC[C@@H](C(=O)NCCOCCOCCNC(=O)[C@H](CC)[C@@H]1N=C(c2ccc(Cl)cc2)c2c(sc(C)c2C)-n2c(C)nnc21)[C@@H]1N=C(c2ccc(Cl)cc2)c2c(sc(C)c2C)-n2c(C)nnc21 [MMH-05-01-03, (2R,2′R)-N,N′-((ethane-1,2-diylbis(oxy))bis(ethane-2,1-diyl))bis(2-((S)-4-(4-chlorophenyl)-2,3,9-trimethyl-6H-thieno[3,2-f][1,2,4]triazolo[4,3-a][1,4]diazepin-6-yl)butanamide)] | improved max dimerization signal over DMSO; also recorded: in most NanoBiT tag orientations have improved signal over DMSO | significantly higher signal; also recorded: outperformed existing FKBP12WT/FRB-rapamycin heterodimerization system | – |
| CC[C@H](C(=O)N1CCCC[C@H]1C(=O)O[C@H](CCc1ccc(OC)c(OC)c1)c1cccc(OCC(=O)NCCCCCCNC(=O)[C@H](CC)[C@@H]2N=C(c3ccc(Cl)cc3)c3c(sc(C)c3C)-n3c(C)nnc32)c1)c1cc(OC)c(OC)c(OC)c1 [MMH-04-74, (R)-1-(3-(2-((6-((R)-2-((S)-4-(4-chlorophenyl)-2,3,9-trimethyl-6H-thieno[3,2-f][1,2,4]triazolo[4,3-a][1,4]diazepin-6-yl)butanamido)hexyl)amino)-2-oxoethoxy)phenyl)-3-(3,4-dimethoxyphenyl)propyl (S)-1-((S)-2-(3,4,5-trimethoxyphenyl)butanoyl)piperidine-2-carboxylate] | – | – | dramatically higher max dimerization signal |
